In patent publication US10675269B2, “Compositions comprising melatonin” (TRINUTRA LTD., priority 2016, dated 2020):

Assays:
RAW 264.7 cells = assay: Nitric oxide (NO) release from LPS-activated RAW 264.7 cells, Griess Reagent System; type: cell-based, murine; details: for inhibition of NO production when compared with the LPS-stimulated baseline cells: 1.3 μM valerenic acid
Procedure: The objective of the studies reported in working examples 1-5 hereinbelow was to evaluate the anti-inflammatory properties of Melatonin, carnosic acid (Rosemary extract), Valerenic acid and combinations thereof on a cell line derived from murine macrophages (RAW 264.7 cells) activated by lipopolysaccharide (LPS).
10^5 RAW 264.7 cells were seeded in 96-well plates in a medium containing 1% FBS, 1% Glutamine and 1% Pen/strep in DMEM.
For dose response assays, cells were treated with 2-fold concentrations of Melatonin (starting from 15.6 μM up to 1000 μM LOT # XPS150311, Yes Pharma), Rosemary extract (0.1, 0.2, 0.4, 1, 2, 4, or 10 μM, Product #302659, Batch # LAB.16-659001, Vitiva) or 10% Valerenic acid (starting from 1.56 mg/ml up to 100 mg/ml, Batch # IWTC/5949/15001, Indo World Trading Corporation) for 6 hours. Then, the test solutions were removed and the cells were induced with lipopolysaccharide (LPS) (5 ng/ml). In addition, positive control cells were treated with 10 μM dexamethasone. Nitric oxide (NO) release was measured after incubation at 37° C., 5% CO2 using a Griess Reagent System. The method is based on the chemical diazotization reaction that was originally described by Griess in 1879, which uses sulfanilamide and N-1-napthylethylenediamine dihydrochloride (NED) under acidic (phosphoric acid) conditions. This system detects NO2^− in a variety of biological and experimental liquid matrices such as tissue culture medium that was tested in this study.
For combination assays, cells were treated with various concentrations of Melatonin, Rosemary extract (containing 25% carnosic acid) and 10% Valerenic acid, at the final concentration indicated in each experiment, hereinbelow, for 22 hours together with LPS induction (5 ng/ml). […] In addition, positive control cells were treated with 10 μM dexamethasone. Nitric oxide (NO) release was tested after incubation at 37° C., 5% CO2 using the Griess Reagent System.

laboratory rats = assay: Open field spontaneous activity (mobility time), anxiolytic effect; type: in vivo, rat; details: FIG. 3, 15 minute session, 30 minutes after administration
Procedure: Open field tests were used as a measure of the spontaneous activity of laboratory rats, in order to measure the anxiolytic effects of melatonin, valerian and a combination of these two substances. Rats were placed in a behavioral room one hour before testing procedures, for purpose of habituation. Activity was tested in open boxes (open-fields: 80 cm wide, 80 cm large, 60 cm high) made of transparent Plexiglas. Animals were individually placed in the open-fields for 15 minute sessions. The following parameters were recorded: Indices of motor exploratory activity: the distance traveled, mobility time, Open Field spontaneous activity is performed on the testing day, 30 minutes after the administration of a test substance (melatonin, valerian, a combination of the two, or vehicle). • Indices of habituation: distance traveled. • During the last 5 minute period in percent of the first as last 5 minute periods. • Indices of anxiety: • Percentage of distance traveled in the central zone of the open-field. • Percentage of time spent in the central zone of the open-field.

rats = assay: Open field center time, base-line and caffeine-relaxed rats; type: in vivo, rat; details: FIG. 4; caffeine-relaxed rats
Procedure: As in Example 3, above, open field tests were used to measure the anxiolytic effects of melatonin, valerian and a combination of these two substances. However, in some of the rats in the present study, the effect of the test substances was measured in rats which had also received caffeine. Thus, while the study reported in Example 3 provided insights into the effect of melatonin and valerian on base-line anxiety, the results obtained in this study relate to the effect of these substances on both base-line and caffeine-induced (“caffeine-relaxed”) subjects. The same open-field method was used as in Example 3. However, in this study, the parameter that was measured was the “center time” that is, the time that the rats spend in the center of tested arena. The center time was used as an index for the anxiolytic effect of the test substances in both “base-line” and “caffeine-relaxed” rats.

[1] = Example 1, FIG. 1, tested separately: 0.5 μM Melatonin, 0.7 μM carnosic acid, 22 hours together with 5 ng/ml LPS
[2] = Example 2, tested separately: 0.05 μM Melatonin, 0.07 μM carnosic acid, 5 ng/ml LPS

| SMILES | inhibition of NO production when compared with the LPS-stimulated baseline cells (RAW 264.7 cells; [1]) | inhibition of NO production when compared with the LPS-stimulated baseline cells (RAW 264.7 cells; [2]) | mobility time in comparison to the vehicle control (laboratory rats) | caffeine induced center motility (rats) | NO production by the cultured cells (RAW 264.7 cells; Example 1, FIG. 1 column 2, positive control 10 μM dexamethasone, 5 ng/ml LPS, LPS-stimulated untreated cells 40 μM) [µM] |
| --- | --- | --- | --- | --- | --- |
| COc1ccc2[nH]cc(CCNC(C)=O)c2c1 [Melatonin, N-acetyl-5-methoxytryptamine] | none of the following individual components produced any significant inhibition | none of the following individual components produced any significant inhibition | increased the mobility time | only valerian (both when used separately and when combined with melatonin) affected caffeine induced center motility |  |
| CC(C)c1cc2c(c(O)c1O)[C@@]1(C(=O)O)CCCC(C)(C)[C@@H]1CC2 [carnosic acid] | none of the following individual components produced any significant inhibition | none of the following individual components produced any significant inhibition |  |  |  |
| C[C@@H]1C[C@H]2[C@@H]3CCC4=CC(=O)C=C[C@]4(C)[C@@]3(F)[C@@H](O)C[C@]2(C)[C@@]1(O)C(=O)CO [dexamethasone] |  |  |  |  | 30 |
| CC1=C2[C@H](/C=C(\C)C(=O)O)CC[C@@H](C)[C@H]2CC1 [valerenic acid] | none of the following individual components produced any significant inhibition | none of the following individual components produced any significant inhibition |  |  |  |
